The values below come from patent publication US20190038602A1, “GRANZYME B INHIBITOR FORMULATIONS AND METHODS FOR THE TREATMENT OF BURNS” (viDA Therapeutics, Inc., priority 2016, published 2019).

The test system of data set [1] is burn wound. Briefly: Burn wound healing in mice (deep partial thickness thermal injury, degree IIb). It counts as in vivo. How it is done:
In the studies described herein, all mice were initially anesthetized using mixture of isoflurane/oxygen (Iso about 2-2.5%/oxygen flow rate of about 1.5-2 L/min) in an induction chamber, then moved to a Baines system with a 1-2.5%/1.5-2 L/min flow rate. During anesthesia the mice were placed on a warming pad with a nose cone over the mice to maintain the anesthetic state. The toe nails were trimmed with clippers. A metal rod (25 g, 1 cm in diameter) was heated to 95-100° C. by submersion in boiling water for 3-5 min. The rod was immediately positioned vertically for 6 seconds without additional pressure on the dorsal skin of mice that had also been depilated 3 days before wounding. This procedure induces a deep partial thickness thermal injury (degree IIb). The severity of the thermal injury is classified according to Exp Dermatol. 2010; 19(9):777-783.

The nature of data set [2]: Ex vivo pig ear skin permeation, Franz Diffusion Cell System. It counts as in vitro ADME. To be noted: for Compound A in tape-stripped skin samples, Average: n=3; for Skin concentration (Compound A in tape-stripped skin, single replicates): listed as Compound A. The method, then: […] Formulations were delivered to the skin over a period of 6 hours and drug permeation was assessed by UPLC-MS/MS analysis of tape-stripped skin and receptor fluid. Receptor fluid samples were collected for analysis at 3 and 6 hour time points.
Compound A permeation through skin was assessed ex vivo by using pig ear skin and a Franz Diffusion Cell System (PermeGear®).
Fresh pig ears were obtained from female Yorkshire/Landrace crosses, between 3.5-5 months old, at Jack Bell Research Centre, Vancouver. Immediately after surgery, pig ears were removed and placed in a double Ziploc® bag and stored at −20° C. freezer until shipment to laboratory site on ice via courier the next day. Upon arrival at the site, pig ears were stored in a segregated container, labeled with harvest and shipment date, in −20° C. freezer and were used prior to their expiry date of 5 weeks. Pig skin was prepared according to “Preparation of Pig Skin Samples for ex vivo Permeation Assays.” Briefly, one day prior to the study, frozen ears were thawed washed with deionized water and blotted dry. After trimming off hair, surface skin was separated from cartilage and fat, and hole-punched into coin shape samples to fit dimensions of Franz cells. Pig ear samples were stored in a petri dish, sealed with parafilm tape, in double Ziploc® bags at −20° C. overnight prior to the study on the following day.
Set up of the diffusion cell system was performed according to “Setup, Operation and Cleaning Procedure for Franz Diffusion Cell System.” Prior to application of formulations, skin integrity of each skin sample was determined by measuring the electrical resistance. The electrical resistance was measured with a Model 878B Dual Display LCR Meter (BK Precision®) connected to two stainless steel electrodes, using a setting of 1 KHz. Measurements were taken at least 30 minutes after mounting skin samples to ensure temperature and humidity equilibration. The donor and receptor chamber were filled with 300 μL and 5 mL of pH 7.4 phosphate buffered saline (PBS), respectively, and both electrodes were immersed in solution without touching the skin membrane. Any skin membrane giving an electrical resistance below 4.0 kΩ was discarded and replaced.
Throughout the permeation assay, all cells were maintained at 32° C. and sink condition was maintained in the receptor fluid. Receptor chambers were filled with 4.75 mL of receptor fluid (pH 7.4 PBS) and were kept stirring for the entire duration of the experiment. Skin samples were mounted above the receptor chamber, in direct contact with the receptor fluid, and then donor chambers were mounted above the skin. Any air bubbles between the skin tissue and the receptor fluid were carefully removed prior to application of formulations. The appropriate formulation (300 μL) was added to the donor chamber and the opening of the cell was covered with Parafilm® to prevent evaporation of the test article. Three skin samples per formulation (N) were tested. Three components (receptor fluid, applied formulation and skin samples) were sampled for subsequent analysis. Receptor fluid was sampled at 3 and 6 hours (without volume replacement) and stored at −20° C. until analysis. At the end of the experiment, the applied formulation was recovered from the donor chamber and recorded as the unabsorbed dose. The skin was then blotted dry with a Kimwipe® and tape-stripped skin (12 tape strips) was obtained. The first tape strip (3M scotch tape) was used to remove excess of formulation remaining on the skin and was discarded. Then a total of 11 tape strips were used to partially remove the stratum corneum. These tape strips were kept in labeled glass vial. Then using a hole-puncher the section of skin exposed to the formulation was removed and the corresponding weight of the skin sample was recorded. All samples were stored at −20° C. until analysis. […]

The nature of data set [3]: Concentration of Compound A in skin after application of gel (FIG. 3B). To be noted: 50 μL gel, 0.35% w/v Compound A. How it is done:
FIG. 3A is an image of skin to which a volume (50 μL) of a representative formulation of the invention that includes Compound A was applied. The applied formulation (gel) includes Compound A at a concentration of 0.35% w/v in a vehicle containing propylene glycol (20% w/w), Carbopol 940 (0.5% w/v), methyl paraben (0.2% w/w), propyl paraben (0.02% w/w) and acetate buffer pH 5 (QS). Triethylamine was used to adjust the final formulation pH to 5-6.
FIG. 3B compares concentration of Compound A (μg/μL) in the skin at 4, 6, and 24 hours after application of a volume (50 μL) of a representative formulation of the invention that includes Compound A as described above for FIG. 3A.
FIG. 3A is an image of skin to which a volume (50 μL) of a representative formulation of the invention that includes Compound A was applied. FIG. 3B compares concentration of Compound A (μg/μL) in the skin at 4, 6, and 24 hours after application of a volume (50 μL) of a representative formulation of the invention that includes Compound A as described above for FIG. 3A.

Data set [4] can be described thus: Compound A concentration at saturation in penetration enhancer vehicles (UPLC). It counts as physicochemical. How it is done:
Compound A was dissolved at saturation in various vehicles containing PE in pH 5 acetate buffer (see Table 2). An excess amount of Compound A and the corresponding vehicle were mixed by rotary mixer at room temperature for 24 hours and subsequent filtration through 0.22 μm cellulose acetate membrane. Concentration of Compound A was measured by UPLC.

Several values for one entry are separate records, joined by “and”; a condition that tells them apart may be missing. Equal entries are not always repeated.

As for `CC[C@H](C)[C@H](NC(=O)CCC(=O)O)C(=O)NCC(=O)N1C(=O)N(C2CCCCC2)C[C@H]1C(=O)NCc1nn[nH]n1` [Compound 1A, 4-(((2S,3S)-1-((2-((S)-5-(((2H-tetrazol-5-yl)methyl)carbamoyl)-3-cyclohexyl-2-oxoimidazolidin-1-yl)-2-oxoethyl)amino)-3-methyl-1-oxopentan-2-yl)amino)-4-oxobutanoic acid], the “In vivo performance of gel” value in data set [1] (3.6 mg/mL gel, pH 6.0 with triethanolamine, compared with Compound 1 gel (triethylamine)) is reported as “performance comparable to that of another representative formulation”.
`CC[C@H](C)[C@H](NC(=O)CCC(=O)O)C(=O)NCC(=O)N1C(=O)N(C2CCCCC2)C[C@H]1C(=O)NCc1nn[nH]n1` [Compound C2, 4-(((2S,3S)-1-((2-((S)-5-(((2H-tetrazol-5-yl)methyl)carbamoyl)-3-cyclohexyl-2-oxoimidazolidin-1-yl)-2-oxoethyl)amino)-3-methyl-1-oxopentan-2-yl)amino)-4-oxobutanoic acid]: the “Compound A in tape-stripped skin samples, Average” value in data set [2] (Water + 20% N-methyl-2-pyrollidone (NMP), 6 hour exposure) was determined as 4846 ng/g; in data set [2] (pH5 acetate buffer + 10% Dimethyl Isosorbide (DMI), 6 hour exposure), 8833 ng/g; in data set [2] (pH5 acetate buffer + 10% Transcutol (TC), 6 hour exposure), 5461 ng/g; in data set [2] (pH5 acetate buffer + 10% Urea, 6 hour exposure), 9317 ng/g; in data set [2] (pH5 acetate buffer + 15% Tween 80, 6 hour exposure), 3782 ng/g; in data set [2] (pH5 acetate buffer + 20% Propylene Glycol (PG), 6 hour exposure), 7104 ng/g. The “Skin concentration (Compound A in tape-stripped skin, single replicates)” value in data set [2] (Water + 20% NMP, 6 h exposure) was 4313 ng/g and 4985 ng/g and 5241 ng/g; in data set [2] (pH5 acetate buffer + 10% DMI, 6 h exposure), 13975 ng/g and 6214 ng/g and 6311 ng/g; in data set [2] (pH5 acetate buffer + 10% TC, 6 h exposure), 5869 ng/g and 8886 ng/g and 1629 ng/g; in data set [2] (pH5 acetate buffer + 10% Urea, 6 h exposure), 5588 ng/g and 19422 ng/g and 2943 ng/g; in data set [2] (pH5 acetate buffer + 15% Tw80, 6 h exposure), 4937 ng/g and 1968 ng/g and 4442 ng/g; in data set [2] (pH5 acetate buffer + 20% PG, 6 h exposure) it was 4785 ng/g and 10012 ng/g and 6515 ng/g and 4784 ng/g. In data set [2] (tape-stripped skin, 6 hours, span over the six formulations), this molecule yielded an Average skin concentrations of 3700 to 9300 ng/g. Besides, the “Stability and retention in skin (concentration at 4, 6 and 24 hours)” value in data set [3] was “stable and effectively retained in the skin”. For the same molecule, the “Compound A Concentration in Formulation” value in data set [4] (Water + 20% N-methyl-2-pyrollidone (NMP)) is on record as 1.13 mg/mL; in data set [4] (pH5 acetate buffer + 10% Transcutol (TC)), 2.99 mg/mL; in data set [4] (pH5 acetate buffer + 10% dimethylisosorbide (DMI)), 3.18 mg/mL; in data set [4] (pH5 acetate buffer + 10% urea), 3.04 mg/mL; in data set [4] (pH5 acetate buffer + 15% TWEEN 80), 1.56 mg/mL; in data set [4] (pH5 acetate buffer + 20% propylene glycol (PG), room temperature 24 hours) it was 2.82 mg/mL. Also, the “Burn wound healing (percent of original wound size, falling of scabs)” value in data set [1] (subcutaneous injection, solution in PBS 0.56 mg/ml, vs saline, Day 0 to Day 30) is “attenuation of initial burn expansion in the zone of stasis and improved burn wound healing”; in data set [1] (topical gel vs saline control), “attenuation of initial burn expansion in the zone of stasis and improved burn wound healing”. In data set [1] (topical gel), the “Quality of healed wound (epidermal thickness, decorin level, collagen level)” value was “improves quality of healed wound”. The “Burn wound healing (percent of original wound size)” value in data set [1] (topical gel vs vehicle control, repeated study, Day 0 to Day 24) was “attenuation of initial burn expansion in the zone of stasis and improved burn wound healing”.
